Reference: patent US12686676B2, “Compound, endothelin-A receptor antagonist, and pharmaceutical composition” (Alchemedicine, Inc., priority 2021, dated 2026)

Legend:
[1] = biological target: T1, human endothelin A receptor (Homo sapiens, UniProt P25101); test: Endothelin A receptor inhibitory effect (aequorin light emission, endothelin at EC80); assay type: cell-based; settings: for IC50: CHO-K1-mt aequorin cells expressing human endothelin A receptor, endothelin at EC80, read-out: ETA receptor inhibitory effect; for ETA selectivity (ETB/ETA): ETB IC50 value/ETA IC50 value
T1 construct: expressed in transfected cells; host or cells: CHO-K1-mt aequorin cells
T1 sequence (P25101 21-427): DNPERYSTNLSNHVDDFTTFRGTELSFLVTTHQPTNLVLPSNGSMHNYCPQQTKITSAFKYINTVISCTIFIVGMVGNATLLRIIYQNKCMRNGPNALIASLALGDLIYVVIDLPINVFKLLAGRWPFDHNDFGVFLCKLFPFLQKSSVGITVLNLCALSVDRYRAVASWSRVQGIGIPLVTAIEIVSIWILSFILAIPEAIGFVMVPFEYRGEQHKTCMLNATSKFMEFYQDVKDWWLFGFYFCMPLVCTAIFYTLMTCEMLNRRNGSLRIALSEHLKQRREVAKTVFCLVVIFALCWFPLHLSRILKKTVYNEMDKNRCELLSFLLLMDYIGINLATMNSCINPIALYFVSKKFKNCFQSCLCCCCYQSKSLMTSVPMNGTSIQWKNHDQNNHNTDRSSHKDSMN
Experimental: The inhibitory effect on an endothelin A receptor was studied by the following method.
CHO-K1-mt aequorin cells forced to express a human endothelin A receptor (Accession Number NP_001948.1) were cultured in an antibiotic-free medium for 18 hours, then treated with PBS-EDTA (5 mM EDTA), centrifuged (2 min, 405×g, room temperature), and then suspended in an assay buffer (DMEM/HAM's F12 with HEPES+0.1% BSA protease free).
(§1) 1×10^6 cells/mL of the cells were incubated at room temperature for 4 hours in the presence of coelenterazine h (Molecular Probes, Inc.) (final concentration: 5 µM). Agonistic reaction based on endothelin was confirmed to determine an endothelin concentration corresponding to EC80.
Subsequently, 50 µL (10000 cells/well) of the cell suspension treated with coelenterazine h and 50 µL of an assay buffer containing a test substance (final concentration: 0.5% in DMSO) were added to each well of a 96-well plate. 15 minutes later, endothelin was added such that its final concentration was an EC80 concentration. Receptor activity was measured as the quantity of light emission in FDSS6000 (Hamamatsu Photonics K.K.). IC50 values were calculated using XLfit (ID Business Solutions Ltd. (IDBS)).

[2] = biological target: T2, human endothelin B receptor (Homo sapiens, UniProt P24530); test: Endothelin B receptor inhibitory effect (aequorin light emission, endothelin at EC80); assay type: cell-based; settings: for IC50: CHO-K1-mt aequorin cells expressing human endothelin B receptor, endothelin at EC80, read-out: ETB receptor inhibitory effect
T2 construct: expressed in transfected cells; host or cells: CHO-K1-mt aequorin cells
T2 sequence (P24530 27-442): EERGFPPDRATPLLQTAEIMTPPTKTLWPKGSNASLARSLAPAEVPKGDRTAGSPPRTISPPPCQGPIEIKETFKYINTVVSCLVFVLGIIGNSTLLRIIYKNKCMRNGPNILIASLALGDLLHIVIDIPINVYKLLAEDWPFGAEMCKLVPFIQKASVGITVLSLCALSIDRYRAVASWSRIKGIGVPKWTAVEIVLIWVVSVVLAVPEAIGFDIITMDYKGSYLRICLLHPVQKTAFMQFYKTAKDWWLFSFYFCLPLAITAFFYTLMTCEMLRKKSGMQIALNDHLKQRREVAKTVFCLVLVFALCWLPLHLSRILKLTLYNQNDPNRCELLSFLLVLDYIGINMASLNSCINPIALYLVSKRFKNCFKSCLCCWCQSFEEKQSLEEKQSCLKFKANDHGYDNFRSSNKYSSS
Experimental: The inhibitory effect on an endothelin B receptor was studied by the following method.
CHO-K1-mt aequorin cells forced to express a human endothelin B receptor (Accession Number NP_000106.1) were cultured in an antibiotic-free medium for 18 hours, then treated with PBS-EDTA (5 mM EDTA), centrifuged (2 min, 405×g, room temperature), and then suspended in an assay buffer (DMEM/HAM's F12 with HEPES+0.1% BSA protease free).
as §1
Subsequently, 50 µL (10000 cells/well) of the cell suspension treated with coelenterazine h and 50 µL of an assay buffer containing a test substance (final concentration: 0.5% in DMSO) were added to each well of a 96-well plate. 15 minutes later, endothelin was added such that its final concentration was an EC80 concentration. Receptor activity was measured as the quantity of light emission in FDSS6000 (Hamamatsu Photonics K.K.).

[3] = Metabolic stability in human liver microsome; assay type: in vitro ADME; settings: after 30 minutes with NADPH; also: tested at 0.99 µM
Experimental: The metabolic stability in a human liver microsome was evaluated by the following method.
• (1) Human liver microsome: 20 mg/mL • (2) Test compound: 1.1 mM solution in DMSO • (3) Potassium phosphate buffer solution: 66.7 mM (pH 7.4) • (4) NADPH solution: 10 mM in a potassium phosphate buffer solution • (5) Quenching solution: 0.5% formic acid solution in acetonitrile containing warfarin as an internal standard 2. Method
(§2) 971.5 μL of the potassium phosphate buffer solution and 27.5 μL of the human liver microsome were placed in a propylene tube and suspended. 1 μL of the test compound was added thereto, and a 180 μL aliquot of this mixture was transferred to a fresh tube. The mixture was preincubated at 37° C. for 5 minutes. Then, 20 μL of the NADPH solution (for an incubation time of 30 minutes) or 20 μL of the potassium phosphate buffer solution (for an incubation time of 0 minutes) was added thereto. After incubation, the reaction was terminated by the addition of 200 μL of the quenching solution. Subsequently, the tube was centrifuged at 3220×g for 20 minutes, and the concentration of an unchanged form of the test compound in […] of a supernatant was measured by LC-MS/MS. On the basis of the obtained peak area of the unchanged form, the residual rate (%) of the unchanged form was calculated using the rate of 0 minutes of incubation time as 100%.

[4] = Metabolic stability in mouse liver microsome; assay type: in vitro ADME; settings: after 30 minutes with NADPH; also: tested at 0.99 µM
Experimental: as §2
The metabolic stability in a mouse liver microsome was evaluated by the same method as above except that the mouse liver microsome was used instead of the human liver microsome.

SMILES	IC50 [1]	ETA selectivity (ETB/ETA) [1]	IC50 [2]	Metabolic stability (human), residual rate of the unchanged form [3]	Metabolic stability (mouse), residual rate of the unchanged form [4]	inhibition at 5 µM ([2]; at 5000 nM, read-out: ETB receptor inhibitory effect, % inhibition)
Cc1cc2c(cc1C#Cc1ncccc1S(=O)(=O)Nc1noc(C)c1C)C(C)(C)OC2 [Example 1, N-(4,5-Dimethylisoxazol-3-yl)-2-((3,3,6-trimethyl-1,3-dihydroisobenzofuran-5-yl)ethynyl)pyridine-3-sulfonamide]	≤ 1 nM	++ (ETB IC50 value/ETA IC50 value of higher than 5000)	> 5000 nM	59%	85%	–
Cc1cc2c(cc1C#Cc1ncccc1S(=O)(=O)Nc1noc(C)c1C)COC2 [Example 3, N-(4,5-Dimethylisoxazol-3-yl)-2-((6-methyl-1,3-dihydroisobenzofuran-5-yl)ethynyl)pyridine-3-sulfonamide]	≤ 1 nM	++ (ETB IC50 value/ETA IC50 value of higher than 5000)	> 5000 nM	47%	85%	–
Cc1cc2c(cc1C#Cc1ncccc1S(=O)(=O)Nc1noc(C)c1C)C(=O)OC2 [Example 4, N-(4,5-Dimethylisoxazol-3-yl)-2-((6-methyl-3-oxo-1,3-dihydroisobenzofuran-5-yl)ethynyl)pyridine-3-sulfonamide]	≤ 1 nM	++ (ETB IC50 value/ETA IC50 value of higher than 5000)	> 5000 nM	49%	91%	–
Cc1onc(NS(=O)(=O)c2cccnc2C#Cc2ccc3c(c2)COC3)c1C [Example 5, 2-((1,3-Dihydroisobenzofuran-5-yl)ethynyl)-N-(4,5-dimethylisoxazol-3-yl)pyridine-3-sulfonamide]	1 to 10 nM	–	> 5000 nM	63%	90%	–
Cc1onc(NS(=O)(=O)c2cccnc2C#Cc2cc3c(cc2Cl)COC3)c1C [Example 6, 2-((6-Chloro-1,3-dihydroisobenzofuran-5-yl)ethynyl)-N-(4,5-dimethylisoxazol-3-yl)pyridine-3-sulfonamide]	1 to 10 nM	–	> 5000 nM	56%	54%	–
Cc1cc2c(cc1C#Cc1ncccc1S(=O)(=O)Nc1noc(C)c1Cl)C(C)(C)OC2 [Example 7, N-(4-Chloro-5-methylisoxazol-3-yl)-2-((3,3,6-trimethyl-1,3-dihydroisobenzofuran-5-yl)ethynyl)pyridine-3-sulfonamide]	≤ 1 nM	–	–	44%	81%	57%
Cc1cc2c(cc1C#Cc1ncccc1S(=O)(=O)Nc1onc(C)c1C)C(C)(C)OC2 [Example 8, N-(3,4-Dimethylisoxazol-5-yl)-2-((3,3,6-trimethyl-1,3-dihydroisobenzofuran-5-yl)ethynyl)pyridine-3-sulfonamide]	≤ 1 nM	++ (ETB IC50 value/ETA IC50 value of higher than 5000)	> 5000 nM	73%	40%	–
Cc1cc2c(cc1C#Cc1ncccc1S(=O)(=O)Nc1onc(C)c1Cl)C(C)(C)OC2 [Example 9, N-(4-Chloro-3-methylisoxazol-5-yl)-2-((3,3,6-trimethyl-1,3-dihydroisobenzofuran-5-yl)ethynyl)pyridine-3-sulfonamide]	≤ 1 nM	++ (ETB IC50 value/ETA IC50 value of higher than 5000)	> 5000 nM	28%	5%	–
COc1nc(C)cnc1NS(=O)(=O)c1cccnc1C#Cc1cc2c(cc1C)COC2(C)C [Example 10, N-(3-Methoxy-5-methylpyrazin-2-yl)-2-((3,3,6-trimethyl-1,3-dihydroisobenzofuran-5-yl)ethynyl)pyridine-3-sulfonamide]	≤ 1 nM	++ (ETB IC50 value/ETA IC50 value of higher than 5000)	> 5000 nM	66%	68%	–
